Reference: patent publication US20100256333A1, “Peptide-Based Beta Turn Mimetics” (UNIVERSITY OF MANITOBA, priority 2009, published 2010)
Several values for one entry are separate records, joined by “and”; a condition that tells them apart may be missing. Identical values can stand only once. Where a SMILES comes first, the peptide text is derived from it. [ ]: non-standard residue; d: D form.

What was measured:
[1] = Prolyl amide cis/trans equilibrium of tetrapeptides by NMR in various solvents; type: physicochemical
Procedure: Conformational analysis of tetrapeptides 2-11 to 2-13 and 2-16 using NMR. […] The lower tendency of aggregation of glycosylated peptides has previously been reported (runkel et al., 1998). The NMR spectra of all tetrapeptides were measured at the same concentration (8 mM). Intramolecular hydrogen bonding was evaluated by temperature coefficient experiments in DMSO-d6 or H2O/D2O (9/1). Because exchangeable protons engaged in intramolecular hydrogen bonds are typically not influenced by strong hydrogen-bonding solvents (Kopple et al., 1969). The prolyl N-terminal geometry and turn structure were investigated by ROESY experiments (Misicka et al., 1998).
Solvent effects. In addition, the influence of different solvents on the geometry of prolyl N-terminus was studied (Table 14). […] In contrast, peptide 2-12 and reference peptide 2-16 display a solvent effect.

[2] = in CD2Cl2; cited from earlier work
[3] = Cis population and equilibrium constant Kc/t of GlcTProLysC peptide mimics by 1H NMR, pH effect; type: physicochemical; details: HCl salt; for Equilibrium constant Kc/t / Cis population: in D2O; for Equilibrium constant Kc/t: ±0.04; for Cis population: ±3%; for Kc/t: D2O
Procedure: The equilibrium constants Kc/t for compounds 3-22 to 3-25 are shown in Table 15 and were determined by integrating and averaging as many distinct proton signals as possible for both the major and minor isomers in the ^1H NMR spectra (Taylor et al., 2003). […] It appears that the stereochemistry at C-5′ has a profound effect on the equilibrium of isomerization. Also, the cis prolyl amide population in esters 3-22 and 3-23, was generally lower than N′-methylamides 3-24 and 3-25. Taylor and co-workers have proposed that the trans conformation of esters is stabilized relative to amides as a result of increased electron donation from the oxygen lone pair of the N-terminal amide carbonyl group to the antibonding orbital of the prolyl C-terminal carbonyl group (FIG. 20) (Taylor et al., 2003).
Effect of pH. Since compound 3-22 to 3-25 have an ionizable amino group, the inventors were interested to study the influence of the ionization state on Kt/c. […] The inventors selected three buffer ranges: pH=2.6, 7.4 and 12.4, to examine the pH effect on the isomerization of 3-24 and 3-25 (Table 16).
Measurement of equilibrium constant: The calculation was based on the integration of well-resolved peaks of the γ-protons, N-terminal methyl group and α-proton in ^1H NMR.

[4] = Prolyl amide trans/cis ratio by 1H-NMR integration (peptide mimics 3-8); type: physicochemical; details: for Cis population of prolyl N-acetyl N′-methylamides / Experimental distribution of cis conformers / Experimental distribution of trans conformers: in D2O; for Cis population of prolyl N-acetyl N′-methylamides / cis % isomer: ±3%; for Trans/cis ratio Kt/c / cis % isomer: in water, 500 MHz NMR at 25 °C; for Trans/cis ratio Kt/c: ±0.04; for Experimental distribution of cis conformers / Experimental distribution of trans conformers: 1H-NMR integration
Procedure: For each compound 3-6, the ratio of trans/cis isomers was calculated by integrating and averaging as many well-resolved proton signals as possible in the ^1H-NMR spectra (Table 2) (taylor et al., 2003).
The cis population of peptide mimics 7 and 8 are presented in Table 3 together with previously published data for proline analog 9 (Beausoleil and Lubell, 1996), 5-methylproline analogs 10 and 11 (Delaney and Madison, 1982) and 5-tent-butylproline analogs 12 and 13 (Beausoleil and Lubell, 1996).
(§1) Thermodynamics. The equilibrium constants for the interconversion of the cis and trans isomers of 3-6 were determined by measuring the peak area of the 1H resonance for the two isomers. Peak areas were measured with the program Spinworks 2.5. Experiments were conducted at 298-360 K. Equilibrium constants (Kt/c=trans/cis ratios) were calculated directly from the peak areas.

[5] = Thermodynamics of isomerization, Kt/c versus temperature, Van't Hoff plots; type: physicochemical; details: D2O; for ΔG° (298K) of isomerization: in kcal/mol; for ΔH° of isomerization / ΔS° of isomerization: Van't Hoff plots
Procedure: Thermodynamics The effects of temperature on the values Kt/c=(kct/ktc) for each compound were measured directly by NMR spectroscopy over the temperature range 25-93° C. The resulting data were analyzed by Van't Hoff plots (FIG. 7). […] In this case the major cis isomer becomes increasingly favored as the temperature decreases. Values for ΔH^o and ΔS^o were calculated from linear least-squares fits of these plots (Table 6).
as §1

[6] = Kinetics of prolyl amide cis/trans isomerization by 1H-NMR inversion-magnetization transfer, Eyring plots; type: physicochemical; details: for Free energy of activation ΔG‡ cis to trans / Free energy of activation ΔG‡ trans to cis: at 298K, D2O; for Rate constant ktc (trans to cis): calculated from kct and Kt/c
Procedure: Kinetics of cis-trans prolyl amide bond isomerization in peptide mimics 3-6. The kinetics of cis/trans isomerization for compounds 3-6 were determined by ^1H-NMR spectroscopy inversion-magnetization transfer experiments (Perrin and Dwyer, 1990; Reimer et al., 1998) in D2O (Table 4). Because the rates for cis/trans isomerization are extremely slow in protic solvents, the inventors performed these experiments at elevated temperatures (Stein, 1993). At 83° C., the trans-to-cis rate constants of isomerizations (ktc) follows the order 4<5≈6<3. A 200-fold rate difference is observed for diastereomeric amides 3 and 4.
The effects of temperature on kct and ktc were analyzed by Eyring plots (FIG. 6) (Eyring, 1935). The values for ΔH^‡ and ΔS^‡ (Table 5) were calculated from linear least squares fits of the data in these plots (Eyring, 1935). […] However, the activation enthalpy is partially compensated by a higher activation entropy.
Inversion-magnetization transfer NMR experiments were performed on Bruker AMX500 spectrometer equipped with selective excitation units, and ^1H and broadband heteronuclear probes. Samples of 3-6 were prepared at a concentration of 0.01 M in D2O. The rate of prolyl peptide bond isomerization can not be detected by this method at room temperature. Experiments were therefore conducted at elevated temperature at 356 K. Temperature settings of the spectrometer were calibrated to within 1° C. by reference to a glycol standard.

| Structure (SMILES) | Equilibrium constant Kc/t [3] | Cis population [3] [%] | ΔG° (298K) of isomerization [5] | ΔH° of isomerization [5] [kcal/mol] | ΔS° of isomerization [5] [cal/mol•K] | Rate constant kct (cis to trans) ([6]; D2O at 83 °C) [s⁻¹] | Activation enthalpy ΔH‡ cis to trans ([6]; Eyring plots in D2O) [kcal/mol] | Activation enthalpy ΔH‡ trans to cis ([6]; Eyring plots in D2O) [kcal/mol] | Activation entropy ΔS‡ cis to trans ([6]; Eyring plots in D2O) [cal/mol.K] | Activation entropy ΔS‡ trans to cis ([6]; Eyring plots in D2O) [cal/mol.K] | Free energy of activation ΔG‡ cis to trans [6] [kcal/mol] | Free energy of activation ΔG‡ trans to cis [6] [kcal/mol] | Rate constant ktc (trans to cis) ([6]; D2O at 83 °C) [s⁻¹] | Trans/cis ratio Kt/c [4] | cis % isomer [4] [%] | also measured |
| --- | --- | --- | --- | --- | --- | --- | --- | --- | --- | --- | --- | --- | --- | --- | --- | --- |
| CC(=O)N[C@@H](CC(C)C)C(=O)N[C@H](Cc1ccccc1)C(=O)N1CCC[C@H]1C(=O)N[C@H](C(=O)N(C)C)C(C)C [Compound 2-16, Ac-Leu-D-Phe-Pro-Val-NMe2] (Ac-L[dF]PV-NMe2) |  |  |  |  |  |  |  |  |  |  |  |  |  |  |  | Equilibrium constant Kt/c ([1]; CD2Cl2, 500 MHz NMR at 25° C.): 19.00; Equilibrium constant Kt/c ([1]; CD3OD, 500 MHz NMR at 25° C.): 3.17; Equilibrium constant Kt/c ([1]; DMSO-d6, 500 MHz NMR at 25° C.): 1.32; Concentration at which peptide aggregated [2]: ≥ 10000 µM |
| COC(=O)C1N(C(C)=O)C(CO)CC12OC(CN)C(O)C(O)C2O.Cl [Compound 3-23, (1S)-6-Amino-6-deoxy-1′-N-acetyl-5′(S)-hydroxymethylene-spiro[1,5-anhydro-D-glucitol-1,3′-L-prolinemethyl ester] HCl salt] | 0.23 | 19 |  |  |  |  |  |  |  |  |  |  |  |  |  |  |
| CNC(=O)C1N(C(C)=O)C(CO)CC12OC(CO)C(O)C(O)C2O [Compound 7, (1S)-2,3,4,6-Tetrahydroxy-1′-N-acetyl-5′(S)-hydroxymethylene-spiro[1,5-anhydro-D-glucitol-1,3′-L-prolinemethylamide]] |  |  |  |  |  |  |  |  |  |  |  |  |  |  |  | Cis population of prolyl N-acetyl N′-methylamides [4]: 38% and 38±3% |
| CNC(=O)C1N(C(C)=O)C(CO)CC12OC(CO)C(O)C(O)C2O [Compound 8, (1S)-2,3,4,6-tetrahydroxy-1′-N-acetyl-5′(R)-hydroxymethylene-spiro[1,5-anhydro-D-glucitol-1,3′-L-prolinemethylamide]] |  |  |  |  |  |  |  |  |  |  |  |  |  |  |  | Cis population of prolyl N-acetyl N′-methylamides [4]: 74% and 74±3% |
| CNC(=O)C1N(C(C)=O)C(CO)CC12OC(CN)C(O)C(O)C2O.Cl [Compound 3-24, (1S)-6-Amino-6-deoxy-1′-N-acetyl-5′(R)-hydroxymethylene-spiro[1,5-anhydro-D-glucitol-1,3′-L-prolinemethyl amide] HCl salt] | 3.03 | 75 |  |  |  |  |  |  |  |  |  |  |  |  |  | Kc/t ([3]; pD 2.6, ±0.04): 3.03; Kc/t ([3]; pD 7.4, ±0.04): 3.03; Kc/t ([3]; pD 12.4, ±0.04): 2.70 |
| COC(=O)C1N(C(C)=O)C(CO)CC12OC(CN)C(O)C(O)C2O.Cl [Compound 3-22, (1S)-6-Amino-6-deoxy-1′-N-acetyl-5′(R)-hydroxymethylene-spiro[1,5-anhydro-D-glucitol-1,3′-L-prolinemethyl ester] HCl salt] | 1.22 | 55 |  |  |  |  |  |  |  |  |  |  |  |  |  |  |
| COC(=O)[C@@H]1[C@@H](O)CCN1C(C)=O [Compound 5, N-acetyl-3(S)-hydroxy-L-proline methyl ester, reference compound] |  |  | −0.95 ± 0.05 | -1.09 ± 0.03 | −0.48 ± 0.08 | 2.63 ± 0.28 | 21.6 | 21.5 | 3.6 | 1.6 | 20.5 | 21.1 | 1.02 ± 0.09 | 4.88 | 17 |  |
| COC(=O)C1N(C(C)=O)C(CO)CC12OC(CO)C(O)C(O)C2O [Compound 4, (1S)-2,3,4,6-Tetrahydroxy-1′-N-acetyl-5′(R)-hydroxymethylene-spiro[1,5-anhydro-D-glucitol-1,3′-L-prolinemethyl ester]] |  |  | 0.19 ± 0.11 | 0.50 ± 0.06 | 1.05 ± 0.16 | 16.19 ± 1.19 | 19.8 | 19.6 | 2.2 | 1.9 | 19.1 | 19.0 | 19.82 ± 1.45 | 0.88 | 53 | Rate acceleration for kct compared to parent compounds 5 and 6 ([6]; D2O at 83 °C): ~6 fold; Rate acceleration for ktc compared to parent compounds 5 and 6 ([6]; D2O at 83 °C): ~20 fold; Experimental distribution of cis conformers [4]: 53±3%; Experimental distribution of trans conformers [4]: 47 ± 3% |
| COC(=O)C1N(C(C)=O)C(CO)CC12OC(CO)C(O)C(O)C2O [Compound 3, (1S)-2,3,4,6-Tetrahydroxy-1′-N-acetyl-5′(S)-hydroxymethylene-spiro[1,5-anhydro-D-glucitol-1,3′-L-prolinemethyl ester]] |  |  | −0.80 ± 0.13 | -1.67 ± 0.06 | −2.93 ± 0.20 | 0.18 ± 0.01 | 26.1 | 26.4 | 11.1 | 10.2 | 22.8 | 23.4 | 0.08 ± 0.004 | 3.35 | 23 | Increase in activation enthalpy compared to compounds 4-6 ([6]; Eyring plots in D2O): 3.9 to 6.8 kcal/mol; Experimental distribution of cis conformers [4]: 23±3%; Experimental distribution of trans conformers [4]: 77 ± 3% |
| COC(=O)[C@@H]1CCCN1C(C)=O [Compound 6, N-acetyl-L-proline methyl ester, reference compound] |  |  | −1.01 ± 0.08 | -1.21 ± 0.04 | −0.71 ± 0.12 | 2.95 ± 0.12 | 21.9 | 22.5 | 4.8 | 3.9 | 20.5 | 21.4 | 0.82 ± 0.04 | 6.14 | 14 |  |
| CNC(=O)C1N(C(C)=O)C(CO)CC12OC(CN)C(O)C(O)C2O.Cl [Compound 3-25, (1S)-6-Amino-6-deoxy-1′-N-acetyl-5′(S)-hydroxymethylene-spiro[1,5-anhydro-D-glucitol-1,3′-L-prolinemethyl amide] HCl salt] | 0.56 | 36 |  |  |  |  |  |  |  |  |  |  |  |  |  | Kc/t ([3]; pD 2.6, ±0.04): 0.61; Kc/t ([3]; pD 7.4, ±0.04): 0.56; Kc/t ([3]; pD 12.4, ±0.04): 0.61 |
